From paper PMC12664493, “Asparagine endopeptidase (AEP) inhibitor formulation via zein-based nanoparticle improves the therapeutic efficacy toward Alzheimer's disease” (Neurotherapeutics, 2025)
Values joined by “and” are separate entries in the source; they are usually repeats but may differ in a detail not shown here. Equal values may be shown once. Read-outs that look alike come from different tables or passages of the source.

Columns and labels:
Solubility (pH 7.4, PBS) = assay type: physicochemical
[1] = Stability in human liver microsomes; assay type: in vitro ADME
[2] = Stability in mouse liver microsomes; assay type: in vitro ADME; details: read-out: Stability-Microsomes T1/2
[3] = Stability in mouse hepatocytes; assay type: in vitro ADME
[4] = Plasma protein binding, human; assay type: in vitro ADME
[5] = PAMPA-BBB permeability assay; assay type: in vitro ADME; details: read-out: Permeability-PAMPA-BBB Pe
P-glycoprotein (MDR1) = molecular target: T1, P-glycoprotein (MDR1) (Homo sapiens, UniProt P08183); test: MDR1-MDCKII permeability assay (P-glycoprotein efflux); assay type: in vitro ADME; details: dog, MDCK-MDR1
T1 construct: expressed in transfected cells; host or cells: MDCKII

BCRP = molecular target: T2, BCRP (Homo sapiens, UniProt Q9UNQ0); test: Caco-2-BCRP assay with and without Ko143; assay type: in vitro ADME; details: for Papp A→B / Papp B→A / recovery: human
T2 construct: endogenous in cells; host or cells: Caco-2
T2 sequence (Q9UNQ0 1-655): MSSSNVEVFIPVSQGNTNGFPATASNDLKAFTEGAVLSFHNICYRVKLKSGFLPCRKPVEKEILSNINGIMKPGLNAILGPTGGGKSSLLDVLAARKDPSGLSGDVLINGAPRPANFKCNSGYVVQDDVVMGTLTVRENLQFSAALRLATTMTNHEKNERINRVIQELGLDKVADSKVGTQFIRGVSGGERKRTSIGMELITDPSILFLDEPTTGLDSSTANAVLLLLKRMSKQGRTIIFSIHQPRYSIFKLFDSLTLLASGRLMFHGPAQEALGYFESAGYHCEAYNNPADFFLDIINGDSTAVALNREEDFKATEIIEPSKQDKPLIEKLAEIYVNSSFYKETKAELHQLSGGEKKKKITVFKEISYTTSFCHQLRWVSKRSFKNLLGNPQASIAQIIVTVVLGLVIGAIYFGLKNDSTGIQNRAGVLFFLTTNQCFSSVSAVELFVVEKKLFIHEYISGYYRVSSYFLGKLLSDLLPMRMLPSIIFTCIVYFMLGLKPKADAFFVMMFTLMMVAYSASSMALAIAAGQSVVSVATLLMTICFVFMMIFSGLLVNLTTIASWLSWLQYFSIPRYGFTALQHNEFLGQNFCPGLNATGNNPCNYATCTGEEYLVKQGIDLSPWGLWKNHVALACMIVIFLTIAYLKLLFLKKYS

[6] = In vivo pharmacokinetics in CD-1 (ICR) mice, plasma and brain, LC-MS/MS; details: mouse
Source text: (§1) Blood and brain tissues were collected at 0, 0.08, 0.25, 0.5, 1, 2, 4, and 8 h post-administration. For acute pharmacodynamic (PD) assessments, male and female 3xTg mice received oral doses of NP-11a-isopropyl at 7.5 mg/kg or 15 mg/kg, and blood and brain samples were collected 2 h after treatment.

[7] = Plasma and brain concentrations after acute oral treatment of 3xTg mice; assay type: in vivo; details: both sexes, mouse
Source text: Blood and brain tissues were collected at 0, 0.08, 0.25, 0.5, 1, 2, 4, and 8 h post-administration.

AEP = molecular target: T3, AEP (Mus musculus, UniProt O89017); test: Chronic one-month oral treatment of 3xTg mice: AEP activation and substrate cleavage; assay type: in vivo; details: 7.5 mg/kg P.O. daily
T3 construct: from tissue; host or cells: brain / hippocampus of 3xTg mice
T3 sequence (O89017 18-435): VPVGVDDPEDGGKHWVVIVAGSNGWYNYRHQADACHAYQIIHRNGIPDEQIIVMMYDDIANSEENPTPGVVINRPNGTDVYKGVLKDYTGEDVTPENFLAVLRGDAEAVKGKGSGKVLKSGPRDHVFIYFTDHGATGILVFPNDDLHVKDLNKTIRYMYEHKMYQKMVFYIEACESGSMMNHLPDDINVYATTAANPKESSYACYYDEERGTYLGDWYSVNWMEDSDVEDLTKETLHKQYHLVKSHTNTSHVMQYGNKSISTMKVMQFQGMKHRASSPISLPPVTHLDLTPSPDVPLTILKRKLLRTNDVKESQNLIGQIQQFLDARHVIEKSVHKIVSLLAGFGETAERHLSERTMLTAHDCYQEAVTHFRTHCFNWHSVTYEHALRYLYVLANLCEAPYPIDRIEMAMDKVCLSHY

3xTg mice = test: Y-maze test in 3xTg mice; assay type: in vivo, mouse; details: 7.5 mg/kg P.O. daily, one month
Source text: as §1
The Y-maze test was employed to evaluate spatial working memory and spontaneous alternation behavior, a measure of natural exploratory pattern integrity. The apparatus comprised three symmetrical opaque arms (A, B, C; 30 cm length × 8 cm width × 15 cm height) intersecting at 120° angles to form a Y-shaped configuration. Mice were habituated to the maze during a 5-min acclimatization period to minimize novelty-induced anxiety. Following habituation, spontaneous exploration was recorded for 8 min using an overhead camera, with all trials conducted under consistent low-light conditions to reduce environmental stress. EthoVision XT 12 software (Noldus, Wageningen, The Netherlands) quantified total arm entries, entry sequences, and alternation patterns (consecutive entries into three distinct arms without repetition). The maze was thoroughly cleaned with 70 % ethanol between trials to eliminate olfactory cues.

[8] = male, CD-1 (ICR), plasma, iv, I.V. 2 mg/kg
[9] = male, CD-1 (ICR), plasma, po, P.O. 5 mg/kg

T1 sequence (P08183 whole entry): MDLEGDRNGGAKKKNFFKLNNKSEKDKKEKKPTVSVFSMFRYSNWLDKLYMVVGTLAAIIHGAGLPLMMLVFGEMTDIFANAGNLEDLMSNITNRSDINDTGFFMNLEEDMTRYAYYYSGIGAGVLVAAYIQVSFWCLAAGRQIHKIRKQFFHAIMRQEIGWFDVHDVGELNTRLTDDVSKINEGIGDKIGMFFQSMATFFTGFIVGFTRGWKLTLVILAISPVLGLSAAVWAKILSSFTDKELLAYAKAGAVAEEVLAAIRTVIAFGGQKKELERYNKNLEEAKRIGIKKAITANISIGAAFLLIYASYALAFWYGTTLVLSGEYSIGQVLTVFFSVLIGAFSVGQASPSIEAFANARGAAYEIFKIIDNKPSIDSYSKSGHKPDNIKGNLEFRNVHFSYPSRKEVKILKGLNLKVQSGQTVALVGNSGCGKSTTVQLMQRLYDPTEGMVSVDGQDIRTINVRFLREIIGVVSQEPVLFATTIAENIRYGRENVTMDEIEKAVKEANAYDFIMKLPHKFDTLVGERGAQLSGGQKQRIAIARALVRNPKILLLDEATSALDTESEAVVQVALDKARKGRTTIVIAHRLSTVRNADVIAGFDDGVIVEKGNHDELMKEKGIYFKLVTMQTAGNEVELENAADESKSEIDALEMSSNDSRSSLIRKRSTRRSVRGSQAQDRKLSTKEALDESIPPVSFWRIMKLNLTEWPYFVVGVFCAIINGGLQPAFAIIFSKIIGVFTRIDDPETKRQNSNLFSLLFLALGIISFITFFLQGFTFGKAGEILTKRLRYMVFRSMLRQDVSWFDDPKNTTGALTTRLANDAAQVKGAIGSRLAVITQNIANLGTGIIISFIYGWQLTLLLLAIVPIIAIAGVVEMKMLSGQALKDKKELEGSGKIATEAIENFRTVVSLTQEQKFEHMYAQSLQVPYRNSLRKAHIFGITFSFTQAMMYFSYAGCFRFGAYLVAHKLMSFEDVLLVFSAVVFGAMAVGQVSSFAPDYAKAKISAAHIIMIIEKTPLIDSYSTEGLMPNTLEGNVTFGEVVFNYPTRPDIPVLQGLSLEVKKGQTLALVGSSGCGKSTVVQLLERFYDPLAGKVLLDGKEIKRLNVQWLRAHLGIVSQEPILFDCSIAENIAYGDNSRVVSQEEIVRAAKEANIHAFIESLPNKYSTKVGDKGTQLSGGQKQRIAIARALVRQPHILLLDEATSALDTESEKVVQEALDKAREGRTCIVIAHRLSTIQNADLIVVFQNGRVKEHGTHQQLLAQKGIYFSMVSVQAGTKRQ

solubility (Solubility (pH 7.4, PBS); aqueous buffer, pH 7.4, read-out: Solubility (pH, media)): 2450 µg/mL
solubility (Solubility (pH 7.4, PBS); pH 7.4, aqueous buffer, pH7.4, read-out: Solubility (pH, media)): 6.25 mM
microsomal CLint [1]: 3.6 µL/min/mg
half-life ([1]; read-out: Stability-Microsomes T1/2): > 240 min
half-life [2]: > 27.7 min
hepatocyte CLint [3]: 9 µL/min/1e6 cells
half-life ([3]; read-out: Stability-Hepatocytes T1/2): 153 min
Plasma Protein F u, plasma(%) [4]: 13.8%
Papp [5]: 8.4 ×10⁻⁶ cm/s
Papp A→B (P-glycoprotein (MDR1); a-b, first value in brackets): 0.568 ×10⁻⁶ cm/s
Papp B→A (P-glycoprotein (MDR1); b-a, second value in brackets): 61.9 ×10⁻⁶ cm/s
BCRP substrate classification (BCRP): not a significant substrate of BCRP
Papp A→B (BCRP; Caco-2, with Ko143 2 μM): 15.7 ×10⁻⁶ cm/s
Papp B→A (BCRP; Caco-2, with Ko143 2 μM): 35.7 ×10⁻⁶ cm/s
recovery (BCRP; Caco-2, with Ko143 2 μM, Ko143 2 μM, read-out: Recovery (%) A→B): 107%
recovery (BCRP; Caco-2, with Ko143 2 μM, Ko143 2 μM, read-out: Recovery (%) B→A): 98.5%
Papp A→B (BCRP; Caco-2, Ko143 0 μM): 12.1 ×10⁻⁶ cm/s
Papp B→A (BCRP; Caco-2, Ko143 0 μM): 35.7 ×10⁻⁶ cm/s
recovery (BCRP; Caco-2, Ko143 0 μM, read-out: Recovery (%) A→B): 91.8%
recovery (BCRP; Caco-2, Ko143 0 μM, read-out: Recovery (%) B→A): 104%
MRT last ([6]; male, CD-1 (ICR), brain, iv, I.V. 2 mg/kg, read-out: Brain MRT (0-t)): 143 min
Tmax ([6]; male, CD-1 (ICR), brain, iv, I.V. 2 mg/kg, read-out: Brain Tmax): 4.8 min
MRT last ([6]; male, CD-1 (ICR), brain, po, P.O. 5 mg/kg, read-out: Brain MRT (0-t)): 130 min
Tmax ([6]; male, CD-1 (ICR), brain, po, P.O. 5 mg/kg, read-out: Brain Tmax): 11.6 min
half-life ([6]; male, CD-1 (ICR), brain, iv, 2 mg/kg, I.V. 2 mg/kg, read-out: Brain t1/2 (converted)): ~120 min
half-life ([6]; male, CD-1 (ICR), brain, po, 5 mg/kg, P.O. 5 mg/kg, read-out: Brain t1/2 (converted)): 144 min
clearance ([6]; male, CD-1 (ICR), plasma, iv, 2 mg/kg, I.V. 2 mg/kg, read-out: Plasma CLz (converted)): 13.8 mL/min/kg
half-life ([6]; male, CD-1 (ICR), plasma, iv, 2 mg/kg, I.V. 2 mg/kg, read-out: Plasma t1/2 (converted)): 53.4 min
bioavailability ([6]; male, CD-1 (ICR), plasma, oral, 5 mg/kg, P.O. 5 mg/kg vs I.V. 2 mg/kg, read-out: F* (%) oral bioavailability): ~67.2%
half-life ([6]; male, CD-1 (ICR), plasma, po, 5 mg/kg, P.O. 5 mg/kg, read-out: Plasma t1/2 (converted)): ~43.8 min
AUC(0-t) [6, 8]: 2410 ng·h/mL
Cmax [6, 8]: 5160 ng/mL
MRT last ([6]; male, CD-1 (ICR), plasma, iv, I.V. 2 mg/kg, read-out: Plasma MRT (0-t)): 33.4 min
Tmax ([6]; male, CD-1 (ICR), plasma, iv, I.V. 2 mg/kg, read-out: Plasma Tmax): 4.8 min
AUC(0-t) [6, 9]: 4050 ng·h/mL
Cmax [6, 9]: 4770 ng/mL
MRT last ([6]; male, CD-1 (ICR), plasma, po, P.O. 5 mg/kg, read-out: Plasma MRT (0-t)): 50.9 min
Tmax ([6]; male, CD-1 (ICR), plasma, po, P.O. 5 mg/kg, read-out: Plasma Tmax): 8.22 min
Brain AUC (0-t) ([6]; I.V. 2 mg/kg, 2 mg/kg): approximately 921.71 ng/mL·h
Brain Cmax ([6]; I.V. 2 mg/kg, 2 mg/kg): 306.77 ng/mL
Brain AUC (0-t) ([6]; P.O. 5 mg/kg, 5 mg/kg): ~385.36 ng·h/mL and 385.358 ng·h/mL
Brain Cmax ([6]; P.O. 5 mg/kg, 5 mg/kg): 321.25 ng/mL and 321.248 ng/mL
concentration at 2 h ([7]; brain, 7.5 mg/kg, 11a-isopropyl level in the brain, P.O. 7.5 mg/kg): 14.4 ng/mL
concentration at 2 h ([7]; brain, 7.5 mg/kg, P.O. 7.5 mg/kg, read-out: Concentration in brain, Brain Mean): 14.4 ng/g
concentration at 2 h ([7]; brain, 7.5 mg/kg, P.O. 7.5 mg/kg, read-out: Concentration in brain, Brain Sample (single animal)): 14.4 ng/g
concentration at 2 h ([7]; brain, 15 mg/kg, P.O. 15 mg/kg, read-out: Concentration in brain, Brain Sample (single animal)): 39.3 ng/g
concentration at 2 h ([7]; plasma, 7.5 mg/kg, P.O. 7.5 mg/kg, read-out: Concentration in plasma, Serum Mean): 74.9 ng/mL
AEP activation, APP N585 and Tau N368 fragmentation, hippocampus immunoblotting (AEP): gradually reduced
SMILES: CC(C)Nc1nnc(Nc2cc(CO)c(N3CCOCC3)c3nonc23)s1 [11a-isopropyl]
Cognitive function in the Y maze (3xTg mice): significantly improved
